Source: PMC6120666 (The EMBO Journal, 2018)

Tests used:
Test in all cases: Drug affinity chromatography with c-ponatinib and LC-MS/MS (ponatinib interactome)
Type in all cases: binding
[1] = target: T1, proteins of U2OS cell lysate (Homo sapiens, UniProt Q9NWB6); conditions: ARGLU1, Arginine and glutamate-rich protein 1
T1 construct: Proteins enriched by c-ponatinib from U2OS cell lysate; endogenous in cells; host or cells: U2OS cell lysate
How it was run: (§1)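 U2OS cell lysate in NP-40 lysis buffer (2 mg protein per pulldown) was incubated with amine-derivatized NHS beads for 2 h at 4 °C. Bound proteins were washed, eluted with 100 mM formic acid, reduced, alkylated and trypsin-digested, then identified by nano-UPLC–MS/MS on Orbitrap instruments with a 60 min gradient.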

[2] = target: T2, proteins of U2OS cell lysate (Homo sapiens, UniProt P55072); conditions: VCP, Transitional endoplasmic reticulum ATPase
T2 construct: Proteins enriched by c-ponatinib from U2OS cell lysate; endogenous in cells; host or cells: U2OS cell lysate
How it was run: as §1

[3] = target: T3, proteins of U2OS cell lysate (Homo sapiens, UniProt P35998); conditions: PSMC2, 26S protease regulatory subunit 7
T3 construct: Proteins enriched by c-ponatinib from U2OS cell lysate; endogenous in cells; host or cells: U2OS cell lysate
How it was run: as §1

[4] = target: T4, proteins of U2OS cell lysate (Homo sapiens, UniProt P07948); conditions: LYN, Tyrosine-protein kinase Lyn
T4 construct: Proteins enriched by c-ponatinib from U2OS cell lysate; endogenous in cells; host or cells: U2OS cell lysate
How it was run: as §1

[5] = target: T5, proteins of U2OS cell lysate (Homo sapiens, UniProt Q9H2K8); conditions: TAOK3;TAOK1;TAOK2, Serine/threonine-protein kinase TAO3
T5 construct: Proteins enriched by c-ponatinib from U2OS cell lysate; endogenous in cells; host or cells: U2OS cell lysate
How it was run: as §1

[6] = target: T6, proteins of U2OS cell lysate (Homo sapiens, UniProt O75935); conditions: DCTN3, Dynactin subunit 3
T6 construct: Proteins enriched by c-ponatinib from U2OS cell lysate; endogenous in cells; host or cells: U2OS cell lysate
How it was run: as §1

[7] = target: T7, proteins of U2OS cell lysate (Homo sapiens, UniProt P24534); conditions: EEF1B2, Elongation factor 1-beta
T7 construct: Proteins enriched by c-ponatinib from U2OS cell lysate; endogenous in cells; host or cells: U2OS cell lysate
How it was run: as §1

[8] = target: T8, proteins of U2OS cell lysate (Homo sapiens, UniProt P07305); conditions: H1F0, Histone H1.0
T8 construct: Proteins enriched by c-ponatinib from U2OS cell lysate; endogenous in cells; host or cells: U2OS cell lysate
How it was run: as §1

[9] = target: T9, proteins of U2OS cell lysate (Homo sapiens, UniProt Q9NTJ3); conditions: SMC4, Structural maintenance of chromosomes protein 4
T9 construct: Proteins enriched by c-ponatinib from U2OS cell lysate; endogenous in cells; host or cells: U2OS cell lysate
How it was run: as §1

[10] = target: T10, proteins of U2OS cell lysate (Homo sapiens, UniProt O00487); conditions: PSMD14, 26S proteasome non-ATPase regulatory subunit 14
T10 construct: Proteins enriched by c-ponatinib from U2OS cell lysate; endogenous in cells; host or cells: U2OS cell lysate
How it was run: as §1

[11] = target: T11, proteins of U2OS cell lysate (Homo sapiens, UniProt Q8WWI1); conditions: LMO7, LIM domain only protein 7
T11 construct: Proteins enriched by c-ponatinib from U2OS cell lysate; endogenous in cells; host or cells: U2OS cell lysate
How it was run: as §1

[12] = target: T12, proteins of U2OS cell lysate (Homo sapiens, UniProt P29317); conditions: EPHA2, Ephrin type-A receptor 2
T12 construct: Proteins enriched by c-ponatinib from U2OS cell lysate; endogenous in cells; host or cells: U2OS cell lysate
How it was run: as §1

[13] = target: T13, proteins of U2OS cell lysate (Homo sapiens, UniProt P05141); conditions: SLC25A5;SLC25A6;SLC25A4, ADP/ATP translocase 2
T13 construct: Proteins enriched by c-ponatinib from U2OS cell lysate; endogenous in cells; host or cells: U2OS cell lysate
How it was run: as §1

[14] = target: T14, proteins of U2OS cell lysate (Homo sapiens, UniProt P49207); conditions: RPL34, 60S ribosomal protein L34
T14 construct: Proteins enriched by c-ponatinib from U2OS cell lysate; endogenous in cells; host or cells: U2OS cell lysate
How it was run: as §1

[15] = target: T15, proteins of U2OS cell lysate (Homo sapiens, UniProt Q12851); conditions: MAP4K2, Mitogen-activated protein kinase kinase kinase kinase 2
T15 construct: Proteins enriched by c-ponatinib from U2OS cell lysate; endogenous in cells; host or cells: U2OS cell lysate
How it was run: as §1

[16] = target: T16, proteins of U2OS cell lysate (Homo sapiens, UniProt P23528); conditions: CFL1, Cofilin-1
T16 construct: Proteins enriched by c-ponatinib from U2OS cell lysate; endogenous in cells; host or cells: U2OS cell lysate
How it was run: as §1

[17] = target: T17, proteins of U2OS cell lysate (Homo sapiens, UniProt P05783); conditions: KRT18, Keratin, type I cytoskeletal 18
T17 construct: Proteins enriched by c-ponatinib from U2OS cell lysate; endogenous in cells; host or cells: U2OS cell lysate
How it was run: as §1

[18] = target: T18, proteins of U2OS cell lysate (Homo sapiens, UniProt Q15021); conditions: NCAPD2, Condensin complex subunit 1
T18 construct: Proteins enriched by c-ponatinib from U2OS cell lysate; endogenous in cells; host or cells: U2OS cell lysate
How it was run: as §1

[19] = target: T19, proteins of U2OS cell lysate (Homo sapiens, UniProt Q14680); conditions: MELK, Maternal embryonic leucine zipper kinase
T19 construct: Proteins enriched by c-ponatinib from U2OS cell lysate; endogenous in cells; host or cells: U2OS cell lysate
How it was run: as §1

T15 sequence (Q12851 whole entry): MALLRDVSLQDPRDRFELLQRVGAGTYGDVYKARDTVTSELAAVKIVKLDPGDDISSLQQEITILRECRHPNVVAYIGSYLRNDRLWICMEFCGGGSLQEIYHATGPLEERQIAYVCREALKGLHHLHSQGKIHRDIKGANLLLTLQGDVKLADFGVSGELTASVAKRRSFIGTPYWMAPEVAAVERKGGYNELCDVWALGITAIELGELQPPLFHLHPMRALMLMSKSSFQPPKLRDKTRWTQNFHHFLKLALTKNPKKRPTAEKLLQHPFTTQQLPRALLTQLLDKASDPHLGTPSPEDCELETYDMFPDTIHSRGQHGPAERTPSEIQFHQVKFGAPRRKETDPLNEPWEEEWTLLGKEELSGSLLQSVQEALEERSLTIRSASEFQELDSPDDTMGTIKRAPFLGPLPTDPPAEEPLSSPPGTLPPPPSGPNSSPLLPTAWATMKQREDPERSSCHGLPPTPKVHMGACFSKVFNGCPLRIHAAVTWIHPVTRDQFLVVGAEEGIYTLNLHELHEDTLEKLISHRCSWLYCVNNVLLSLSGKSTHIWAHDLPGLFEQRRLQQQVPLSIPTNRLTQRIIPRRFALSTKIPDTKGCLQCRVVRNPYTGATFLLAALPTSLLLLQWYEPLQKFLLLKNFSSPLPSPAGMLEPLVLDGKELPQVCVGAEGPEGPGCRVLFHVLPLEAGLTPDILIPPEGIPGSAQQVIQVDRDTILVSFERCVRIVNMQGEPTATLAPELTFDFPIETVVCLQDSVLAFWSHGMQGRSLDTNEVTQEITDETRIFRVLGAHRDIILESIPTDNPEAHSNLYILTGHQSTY
T3 sequence (P35998 whole entry): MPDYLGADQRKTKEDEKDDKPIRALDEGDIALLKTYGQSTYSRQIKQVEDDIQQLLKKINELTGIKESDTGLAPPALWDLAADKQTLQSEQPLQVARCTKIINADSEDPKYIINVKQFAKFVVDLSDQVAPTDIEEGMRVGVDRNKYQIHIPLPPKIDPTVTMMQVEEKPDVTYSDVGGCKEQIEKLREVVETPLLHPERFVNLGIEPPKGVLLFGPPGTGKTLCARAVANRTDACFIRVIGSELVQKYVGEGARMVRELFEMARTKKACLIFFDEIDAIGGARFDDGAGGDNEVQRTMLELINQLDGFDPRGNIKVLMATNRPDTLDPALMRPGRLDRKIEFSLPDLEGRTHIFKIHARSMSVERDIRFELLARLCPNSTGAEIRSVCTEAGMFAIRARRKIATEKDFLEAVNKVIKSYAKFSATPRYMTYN
T12 sequence (P29317 24-976): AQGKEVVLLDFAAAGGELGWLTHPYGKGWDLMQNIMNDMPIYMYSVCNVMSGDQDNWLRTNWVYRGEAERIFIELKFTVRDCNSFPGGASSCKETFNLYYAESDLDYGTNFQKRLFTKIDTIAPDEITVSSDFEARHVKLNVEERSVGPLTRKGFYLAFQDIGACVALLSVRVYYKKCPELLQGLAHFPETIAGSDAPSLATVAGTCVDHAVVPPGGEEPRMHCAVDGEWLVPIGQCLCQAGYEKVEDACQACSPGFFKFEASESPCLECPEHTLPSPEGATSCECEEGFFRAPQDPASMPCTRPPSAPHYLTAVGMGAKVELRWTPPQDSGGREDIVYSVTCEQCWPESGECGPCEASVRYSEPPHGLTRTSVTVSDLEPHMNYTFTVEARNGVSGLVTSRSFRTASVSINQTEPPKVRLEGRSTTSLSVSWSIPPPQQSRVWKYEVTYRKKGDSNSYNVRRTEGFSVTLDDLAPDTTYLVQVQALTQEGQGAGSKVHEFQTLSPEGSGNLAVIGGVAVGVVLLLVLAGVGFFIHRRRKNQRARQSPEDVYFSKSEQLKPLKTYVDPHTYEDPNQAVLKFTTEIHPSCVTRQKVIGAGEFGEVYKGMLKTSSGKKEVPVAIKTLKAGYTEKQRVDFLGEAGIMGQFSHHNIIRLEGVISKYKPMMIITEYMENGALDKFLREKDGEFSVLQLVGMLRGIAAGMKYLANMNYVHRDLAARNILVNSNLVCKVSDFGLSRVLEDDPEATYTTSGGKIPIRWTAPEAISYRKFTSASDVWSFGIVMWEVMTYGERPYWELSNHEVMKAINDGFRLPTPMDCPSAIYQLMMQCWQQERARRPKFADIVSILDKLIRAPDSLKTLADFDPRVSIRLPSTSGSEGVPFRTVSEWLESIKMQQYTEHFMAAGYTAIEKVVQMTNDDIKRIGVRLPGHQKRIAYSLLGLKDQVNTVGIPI
T9 sequence (Q9NTJ3 whole entry): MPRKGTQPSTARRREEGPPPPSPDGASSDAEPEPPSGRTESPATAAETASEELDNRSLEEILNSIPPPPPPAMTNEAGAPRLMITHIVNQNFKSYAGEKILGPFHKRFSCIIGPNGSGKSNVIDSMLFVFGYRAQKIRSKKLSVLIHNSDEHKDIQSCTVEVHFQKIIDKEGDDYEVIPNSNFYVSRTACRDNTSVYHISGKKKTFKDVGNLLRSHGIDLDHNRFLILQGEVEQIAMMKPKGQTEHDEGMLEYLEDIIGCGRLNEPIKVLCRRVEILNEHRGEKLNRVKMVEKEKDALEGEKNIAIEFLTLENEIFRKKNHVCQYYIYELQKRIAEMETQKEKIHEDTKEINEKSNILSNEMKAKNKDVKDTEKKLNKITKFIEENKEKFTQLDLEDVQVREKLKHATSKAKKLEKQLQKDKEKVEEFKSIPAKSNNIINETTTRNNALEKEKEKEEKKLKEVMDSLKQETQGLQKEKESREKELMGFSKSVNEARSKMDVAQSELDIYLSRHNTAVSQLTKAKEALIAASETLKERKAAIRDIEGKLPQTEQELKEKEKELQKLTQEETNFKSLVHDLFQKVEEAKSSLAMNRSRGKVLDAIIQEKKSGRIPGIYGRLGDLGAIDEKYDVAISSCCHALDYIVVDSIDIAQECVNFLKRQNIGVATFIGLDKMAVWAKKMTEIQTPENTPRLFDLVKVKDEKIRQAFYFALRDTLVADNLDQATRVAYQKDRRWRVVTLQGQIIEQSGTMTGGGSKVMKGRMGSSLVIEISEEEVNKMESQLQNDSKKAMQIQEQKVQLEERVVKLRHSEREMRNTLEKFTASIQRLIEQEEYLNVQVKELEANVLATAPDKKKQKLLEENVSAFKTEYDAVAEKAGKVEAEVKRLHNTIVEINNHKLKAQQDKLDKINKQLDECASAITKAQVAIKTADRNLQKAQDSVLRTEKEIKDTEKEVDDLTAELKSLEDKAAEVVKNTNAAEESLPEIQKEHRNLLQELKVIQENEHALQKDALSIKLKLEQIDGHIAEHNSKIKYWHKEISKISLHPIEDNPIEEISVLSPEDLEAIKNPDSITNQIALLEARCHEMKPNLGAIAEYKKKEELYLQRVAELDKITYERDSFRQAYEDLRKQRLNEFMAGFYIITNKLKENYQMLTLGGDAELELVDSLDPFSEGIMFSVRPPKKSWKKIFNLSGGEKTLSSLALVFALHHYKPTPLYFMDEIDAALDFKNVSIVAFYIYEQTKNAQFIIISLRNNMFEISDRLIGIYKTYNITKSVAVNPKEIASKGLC
T5 sequence (Q9H2K8 whole entry): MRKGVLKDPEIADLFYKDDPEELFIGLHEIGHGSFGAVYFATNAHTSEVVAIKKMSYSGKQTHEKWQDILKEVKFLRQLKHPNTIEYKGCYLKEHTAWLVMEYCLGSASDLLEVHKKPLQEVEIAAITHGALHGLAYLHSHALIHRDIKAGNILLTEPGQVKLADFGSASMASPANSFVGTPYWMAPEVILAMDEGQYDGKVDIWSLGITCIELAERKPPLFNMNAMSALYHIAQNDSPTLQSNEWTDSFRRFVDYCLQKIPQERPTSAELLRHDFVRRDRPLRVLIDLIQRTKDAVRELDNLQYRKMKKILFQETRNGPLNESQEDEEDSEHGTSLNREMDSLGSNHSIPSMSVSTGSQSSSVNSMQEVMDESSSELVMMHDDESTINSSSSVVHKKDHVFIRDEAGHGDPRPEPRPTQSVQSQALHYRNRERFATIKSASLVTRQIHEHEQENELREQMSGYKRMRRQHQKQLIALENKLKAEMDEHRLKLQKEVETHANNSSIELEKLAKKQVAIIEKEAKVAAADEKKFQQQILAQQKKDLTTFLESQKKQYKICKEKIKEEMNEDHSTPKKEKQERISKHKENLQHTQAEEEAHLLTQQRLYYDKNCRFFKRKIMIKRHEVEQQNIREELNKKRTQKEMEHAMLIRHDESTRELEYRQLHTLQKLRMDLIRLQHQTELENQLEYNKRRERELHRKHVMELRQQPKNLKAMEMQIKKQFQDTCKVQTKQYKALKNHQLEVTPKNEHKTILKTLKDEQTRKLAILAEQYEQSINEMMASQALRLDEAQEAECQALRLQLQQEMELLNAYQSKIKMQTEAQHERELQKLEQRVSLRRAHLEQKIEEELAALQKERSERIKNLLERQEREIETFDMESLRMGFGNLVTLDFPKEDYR
T8 sequence (P07305 whole entry): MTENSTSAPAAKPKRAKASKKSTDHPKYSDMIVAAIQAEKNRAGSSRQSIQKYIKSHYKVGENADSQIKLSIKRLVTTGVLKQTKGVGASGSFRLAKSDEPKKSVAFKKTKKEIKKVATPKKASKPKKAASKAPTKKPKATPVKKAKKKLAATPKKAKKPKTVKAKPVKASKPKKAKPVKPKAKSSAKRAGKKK
T1 sequence (Q9NWB6 whole entry): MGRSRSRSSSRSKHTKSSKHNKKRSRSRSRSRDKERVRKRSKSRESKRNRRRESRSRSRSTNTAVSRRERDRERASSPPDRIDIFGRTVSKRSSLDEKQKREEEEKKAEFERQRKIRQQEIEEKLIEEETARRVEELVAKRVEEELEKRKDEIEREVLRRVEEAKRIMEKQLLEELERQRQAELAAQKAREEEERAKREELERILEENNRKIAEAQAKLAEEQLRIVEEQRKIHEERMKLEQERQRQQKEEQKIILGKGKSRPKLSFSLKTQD
T16 sequence (P23528 whole entry): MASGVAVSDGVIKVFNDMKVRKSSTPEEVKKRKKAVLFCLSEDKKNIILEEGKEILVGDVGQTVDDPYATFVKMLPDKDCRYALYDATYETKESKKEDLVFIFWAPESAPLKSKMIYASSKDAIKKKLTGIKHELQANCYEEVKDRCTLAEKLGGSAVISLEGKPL

Cc1ccc(C(=O)Nc2ccc(CN3CCN(C)CC3)c(C(F)(F)F)c2)cc1C#Cc1cnc2cccnn12 [PON]
Average LFQ PON_WT [1]: 21.1214
Average LFQ PON_WT [2]: 23.9947
Average LFQ PON_WT [3]: 21.2631
Average LFQ PON_WT [4]: 23.7419
Average LFQ PON_WT [5]: 21.1056
Average LFQ PON_WT [6]: 20.8844
Average LFQ PON_WT [7]: 23.7043
Average LFQ PON_WT [8]: 21.4215
Average LFQ PON_WT [9]: 21.2975
Average LFQ PON_WT [10]: 20.7842
Average LFQ PON_WT [11]: 20.1594
Average LFQ PON_WT [12]: 29.5288
Average LFQ PON_WT [13]: 25.3771
Average LFQ PON_WT [14]: 21.0301
Average LFQ PON_WT [15]: 27.1188
Average LFQ PON_WT [16]: 19.4794
Average LFQ PON_WT [17]: 23.283
Average LFQ PON_WT [18]: 21.331
Average LFQ PON_WT [19]: 24.1941
